“Also recorded” adds a separate entry of the source.
Key:
PANC-1 = test: MTT cytotoxicity test, PANC-1; format: cell-based; conditions: 24 h
Description: (§1) In this test, […] present in the cells converts the soluble tetrazolium salt (3-4,5-dimethylthiazol-2-yl)-2,5-diphenyltetrazolium bromide) into a reduced form. The reaction yields water-insoluble purple crystalline formazan. The number of crystals formed depends on the enzyme activity so that it is directly proportional to the number of viable cells in the sample. Spectrophotometric measurement requires the use of an organic solvent to dissolve the crystals obtained (isopropanol). The change in colour intensity is measured by spectrophotometry at 570 nm wavelength. The test was performed for a number of dilutions (9) of nanoparticle solutions containing the tested anthracycline. The baseline concentration of nanoparticles for MTT tests was 2.5 mg of nanoparticles/ml. […] The study was also performed for drug-free nanoparticles (the carrier itself was obtained similarly to the nanoparticles with the drug). Cells not exposed to toxic substances were used as a control for toxicity studies.
(§2) After reaching 85-90% confluence, the cells were trypsinised using a 0.25% trypsin solution. The cells were then centrifuged (1200 rpm, 5 min.) and suspended in a culture medium suitable for a particular cell line. […] The cells were plated at a concentration of 1000 cells/100 μl of medium per culture well (96-well plates). The prepared plates were incubated (37° C./5% CO2/22 h to 26 h). Subsequently, the culture medium was replaced with a fresh one (100 μl) containing the appropriate concentration of the tested nanoparticles and set aside for 24 h (37° C./5% CO2). After the lapse of the test time, the medium was removed and replaced with 50 μl of an MTT reagent solution at a concentration of 1 mg/ml. The plate was incubated for 2 hours (37° C./5% CO2). Subsequently, the MTT solution was removed, and 100 μl of isopropanol was added. […] The mean value of absorbance read OD570 of the cells not exposed to a toxic agent (control) should be above 0.7 [see literature item 206].
(§3) A decrease in the number of viable cells causes a decrease in metabolic activity in the sample. This reduction directly correlates with the amount of blue and purple formazan formed, monitored basing on the optical density at 570 nm. The following equation (C.1) is used to calculate viability reduction compared to control:
(§4) where: • OD570e is the mean value of the measured absorbance of the test samples; • OD570b is the mean value of the measured absorbance of the control.
(§5) The results obtained were statistically analysed using the Dixon Q test.

MCF-7 = test: MTT cytotoxicity test, MCF-7; format: cell-based; conditions: 24 h
Description: as §1, §2, §3, §4, §5

AU565 = test: MTT cytotoxicity test, AU565; format: cell-based; conditions: 24 h
Description: as §1, §2, §3, §4, §5

[1] = to limit side effects; cited from earlier work
mice = test: Survival of mice during treatment (Example 3); format: in vivo; conditions: EPI 15 mg/kg bw; NPs-EPI 3.75 and […] bw, i.v. every second day
internal organs [2] = conditions: microscopic images, dose of 10 mg/kg bw
Description: (§6) Following Example 3, mice were obtained constituting an ovarian tumour test model, which were divided into 3 groups.

OVCAR3 line cells = test: Anti-tumour efficacy, tumour volume, OVCAR3 xenograft, 10 mg/kg bw every 3 days (Example 4); format: in vivo, mice
Description: as §6

[3] = 10 mg/kg bw every 3 days, following 3 administrations
Description: as §6

internal organs [4] = test: Macroscopic and histopathological examination of internal organs at necropsy (Example 3); format: in vivo, mice
[5] = PANC1, 1.25E+05 ng/ml NPs (pure drug equimolar)
[6] = PANC1, 1.25E+06 ng/ml NPs (pure drug equimolar)
[7] = PANC1, 2.50E+04 ng/ml NPs (pure drug equimolar)
[8] = PANC1, 2.50E+05 ng/ml NPs (pure drug equimolar)
[9] = PANC1, 2.50E+06 ng/ml NPs (pure drug equimolar)
[10] = PANC1, 5.00E+03 ng/ml NPs (pure drug equimolar)
[11] = PANC1, 5.00E+05 ng/ml NPs (pure drug equimolar)
[12] = MCF-7, 1.25E+04 ng/ml NPs (pure drug equimolar)
[13] = MCF-7, 1.25E+05 ng/ml NPs (pure drug equimolar)
[14] = MCF-7, 1.25E+06 ng/ml NPs (pure drug equimolar)
[15] = MCF-7, 2.50E+04 ng/ml NPs (pure drug equimolar)
[16] = MCF-7, 2.50E+05 ng/ml NPs (pure drug equimolar)
[17] = MCF-7, 2.50E+06 ng/ml NPs (pure drug equimolar)
[18] = MCF-7, 5.00E+03 ng/ml NPs (pure drug equimolar)
[19] = MCF-7, 5.00E+04 ng/ml NPs (pure drug equimolar)
[20] = MCF-7, 5.00E+05 ng/ml NPs (pure drug equimolar)
[21] = AU565, 1.25E+04 ng/ml NPs (pure drug equimolar)
[22] = AU565, 1.25E+05 ng/ml NPs (pure drug equimolar)
[23] = AU565, 2.50E+04 ng/ml NPs (pure drug equimolar)
[24] = AU565, 2.50E+05 ng/ml NPs (pure drug equimolar)
[25] = AU565, 2.50E+06 ng/ml NPs (pure drug equimolar)
[26] = AU565, 5.00E+03 ng/ml NPs (pure drug equimolar)
[27] = AU565, 5.00E+04 ng/ml NPs (pure drug equimolar)
[28] = AU565, 5.00E+05 ng/ml NPs (pure drug equimolar)
[29] = 10 mg/kg bw every 3 days, group average

With `COc1cccc2c1C(=O)c1c(O)c3c(c(O)c1C2=O)C[C@@](O)(C(C)=O)C[C@@H]3O[C@H]1C[C@H](N)[C@H](O)[C@H](C)O1` [Dau, daunorubicin] the Average viability (PANC-1; [5]) was 48.79%, the Average viability (PANC-1; [6]) was 1.02% and the Average viability (PANC-1; [7]) was 61.24%. The Average viability (PANC-1; [8]) was 33.21%, the Average viability (PANC-1; [9]) was 95.12% and the Average viability (PANC-1; [10]) was 95.12%. It also gave an Average viability (PANC-1; PANC1, 5.00E+04 ng/ml NPs (pure drug equimolar)) of 56.67%, an Average viability (PANC-1; [11]) of 0.54% and an Average viability (MCF-7; [12]) of 1.153%. It also gave an Average viability (MCF-7; [13]) of 17.162%, an Average viability (MCF-7; [14]) of 40.867% and an Average viability (MCF-7; [15]) of 1.072%. For the same molecule, the Average viability (MCF-7; [16]) was 23.086%, the Average viability (MCF-7; [17]) was 69.450% and the Average viability (MCF-7; [18]) was 1.311%. For the same molecule, the Average viability (MCF-7; [19]) was 4.421%, the Average viability (MCF-7; [20]) was 25.325% and the Average viability (AU565; [21]) was 58.57%. For the same molecule, the Average viability (AU565; [22]) was 25.83%, the Average viability (AU565; AU565, 1.25E+06 ng/ml NPs (pure drug equimolar)) was 1.544% and the Average viability (AU565; [23]) was 33.22%. It also gave an Average viability (AU565; [24]) of 12.14%, an Average viability (AU565; [25]) of 1.053% and an Average viability (AU565; [26]) of 75.96%. The Average viability (AU565; [27]) was 28.26%, the Average viability (AU565; [28]) was 3.245% and the “maximum recommended cumulative dose” value [1] was 500 mg/m^2.

In the case of `COc1cccc2c1C(=O)c1c(O)c3c(c(O)c1C2=O)C[C@@](O)(C(=O)CO)C[C@@H]3O[C@H]1C[C@H](N)[C@@H](O)[C@H](C)O1` [Epi, epirubicin], the Average viability (PANC-1; PANC1, 1.25E+04 ng/ml NPs (pure drug equimolar)) is reported as 94.813%, the Average viability (PANC-1; [5]) is reported as 82.872% and the Average viability (PANC-1; [6]) is reported as 27.965%. It also gave an Average viability (PANC-1; [7]) of 99.155%, an Average viability (PANC-1; [8]) of 79.499% and an Average viability (PANC-1; [9]) of 5.339%. For the same molecule, the Average viability (PANC-1; [10]) was 97.954%, the Average viability (PANC-1; [11]) was 54.929% and the “death or survival of the mice during treatment” value (mice) was “resulted in the death of the mice”. For the same molecule, the Average viability (MCF-7; [12]) was 88.51%, the Average viability (MCF-7; [13]) was 46.97% and the Average viability (MCF-7; [14]) was 5.9%. The Average viability (MCF-7; [15]) was 64.7%, the Average viability (MCF-7; [16]) was 41.35% and the Average viability (MCF-7; [17]) was 1.68%. For the same molecule, the Average viability (MCF-7; [18]) was 97.78%, the Average viability (MCF-7; [19]) was 56.01% and the Average viability (MCF-7; [20]) was 31.11%. The “Appearance of the organ: Tumour” value (internal organs [2]) was “anaplastic lesions, moderate tumour necrosis”, the “Appearance of the organ: Liver” value (internal organs [2]; 10 mg/kg) was “Hyperaemia, features of hepatocyte; also recorded: feathery degeneration, focal necrosis” and the “Appearance of the organ: Reproductive organs” value (internal organs [2]; 10 mg/kg) was “Severe lesions, endometrial hypertrophy,; also recorded: cystic lesions, the growth of Leydig cells”. For the same molecule, the “Average tumour volume (mm^3) Before necropsy” value (OVCAR3 line cells; 10 mg/kg bw every 3 days (group K), after 3 administrations) was 124.45 ± 57.05 mm^3, the “Average tumour volume (mm^3) Before 1st administration” value (OVCAR3 line cells; [29]) was 143.56 ± 9.22 mm^3 and the “Average tumour volume (mm^3) Before 2nd administration” value (OVCAR3 line cells; [29]) was 148.77 ± 41.82 mm^3. For the same molecule, the “Average tumour volume (mm^3) Before 3rd administration” value (OVCAR3 line cells; [29]) was 131.00 ± 42.96 mm^3, the “average increase of tumour volume” value (OVCAR3 line cells; 10 mg/kg bw, after the first dose) was 3.63% and the “average decrease of body weight” value [3] was 22.55%. The “inflammation and changes of liver and spleen compared to the control group” value (internal organs [4]; OVCAR3 mice) was “severe inflammation and changes in the structure of the liver”, the “Macroscopic evaluation of internal organs: Adrenal glands” value (internal organs [4]; mouse #5, 15 mg/kg bw) was “No visible changes” and the “Macroscopic evaluation of internal organs: Bladder” value (internal organs [4]; mouse #5, 15 mg/kg bw) was “No visible changes”. For the same molecule, the “Macroscopic evaluation of internal organs: Brain” value (internal organs [4]; mouse #5, 15 mg/kg bw) was “No visible changes”, the “Macroscopic evaluation of internal organs: Heart” value (internal organs [4]; mouse #5, 15 mg/kg bw) was “No visible changes” and the “Macroscopic evaluation of internal organs: Left kidney” value (internal organs [4]; mouse #5, 15 mg/kg bw) was “Consistency softer than normal”. The “Macroscopic evaluation of internal organs: Liver” value (internal organs [4]; mouse #5, 15 mg/kg bw) was “consistency softer than normal, blood vessels; also recorded: Liver surface colour dark cherry to brown,”, the “Macroscopic evaluation of internal organs: Lung” value (internal organs [4]; mouse #5, 15 mg/kg bw) was “No visible changes” and the “Macroscopic evaluation of internal organs: Pancreas” value (internal organs [4]; mouse #5, 15 mg/kg bw) was “No visible changes”. The “Macroscopic evaluation of internal organs: Reproductive organs” value (internal organs [4]; mouse #5, 15 mg/kg bw) was “No visible changes”, the “Macroscopic evaluation of internal organs: Right kidney” value (internal organs [4]; mouse #5, 15 mg/kg bw) was “Consistency softer than normal” and the “Macroscopic evaluation of internal organs: Spleen” value (internal organs [4]; mouse #5, 15 mg/kg bw) was 1.6 cm × 0.4 cm × 0.1 cm in size, and slightly smaller, dark brown in colour. For the same molecule, the “Macroscopic evaluation of internal organs: Stomach” value (internal organs [4]; mouse #5, 15 mg/kg bw) was “No visible changes”, the “Macroscopic evaluation of internal organs: Thymus” value (internal organs [4]; mouse #5, 15 mg/kg bw) was “No visible changes” and the “External appearance of the mouse: skin thick” value (internal organs [4]; mouse #5, EPI/OVCAR3 group, 15 mg/kg bw) was 0.21 mm. The “External appearance of the mouse” value (internal organs [4]; mouse #5, EPI/OVCAR3 group, 15 mg/kg bw, 15 mg/kg) was “Anal area dirty with faeces, mouse; also recorded: cachectic”, the Average viability (AU565; [21]) was 66.48% and the Average viability (AU565; [22]) was 48.38%. The Average viability (AU565; [23]) was 66.439%, the Average viability (AU565; [24]) was 29.222% and the Average viability (AU565; [25]) was 1.822%. The Average viability (AU565; [26]) was 84.738%, the Average viability (AU565; [27]) was 48.052% and the Average viability (AU565; [28]) was 11.723%.

Source: US20210052616A1, “ANTHRACYCLINE ENCAPSULATED WITH A POLYSACCHARIDE FOR USE IN THE TREATMENT OF TUMOURS” (NANOVELOS S.A, priority 2018, published 2021)
